Assay results from US20050244485A1, “Transdermal administration of hydrophilic drugs using a basic permeation enhancer composition” (priority 2003, published 2005).

How the values were obtained:
[1] = cited from earlier work; for pH of 0.1 M aqueous sol'n: 0.1M aqueous solution, 25° C.
[2] = In vitro skin permeation of diclofenac sodium transdermal delivery systems, Franz diffusion cells; format: in vitro ADME, human; conditions: 24 hours; for cumulative amount of diclofenac that permeated through the skin: 32° C.
Method: Each formulation was coated on a release liner and dried in an oven at 65° C. for two hours to remove water and other solvents. The dried drug-in-adhesive/release liner film was laminated to a backing film, and the backing/drug-in-adhesive/release liner laminate was then cut into discs with a diameter of 9/16 inch. The theoretical weight percent weight of each component of the system, after drying (calculated assuming all volatile ingredients were completely removed during drying), is set forth in Table 3.
The release liner was peeled away from the disc laminate. […] The skin/adhesive/backing laminate was clamped between the donor and receiver chambers of the diffusion cell with the skin side facing the receiver solution. […] All cells and receiver solution were maintained at 32° C. for the 24-hour duration of the study.

For `CC1CCCCN1C` (stereo not shown) [1,2-dimethylpiperidine], the “pH of 0.1 M aqueous sol'n” value [1] is listed as 11.61 and the pKa [1] is listed as 10.22.
In the case of `CC1CCCN1C` (stereo not shown) [1,2-dimethylpyrrolidine], the “pH of 0.1 M aqueous sol'n” value [1] is listed as 11.60 and the pKa [1] is listed as 10.20.
For `NCCCCN` [1,4-butanediamine], the “pH of 0.1 M aqueous sol'n” value [1] is given as 11.90.
For `CCN1CCCCC1` [1-ethylpiperidine], the “pH of 0.1 M aqueous sol'n” value [1] is listed as 11.73 and the pKa [1] is listed as 10.45.
For `Cc1cccnc1C` [2,3-dimethylpyridine], the “pH of 0.1 M aqueous sol'n” value [1] is given as 9.79.
For `Cc1cc(C)nc(C)c1` [2,4,6-trimethylpyridine], the pKa [1] is given as 6.69.
For `Cc1c[nH]c(C)n1` [2,4-dimethylimidazole], the “pH of 0.1 M aqueous sol'n” value [1] is given as 10.68 and the pKa [1] is given as 8.36.
For `Cc1ccnc(C)c1` [2,4-dimethylpyridine], the “pH of 0.1 M aqueous sol'n” value [1] is given as 10.00 and the pKa [1] is given as 6.99.
In the case of `Nc1ccc(N)nc1` [2,5-diaminopyridine], the “pH of 0.1 M aqueous sol'n” value [1] is given as 9.74 and the pKa [1] is given as 6.48.
For `CC1CNC(C)CN1` (stereo not shown) [2,5-dimethylpiperazine], the “pH of 0.1 M aqueous sol'n” value [1] is listed as 11.33 and the pKa [1] is listed as 9.66.
In the case of `CCCCCC(C)N` (stereo not shown) [2-aminoheptane], the “pH of 0.1 M aqueous sol'n” value [1] is listed as 11.85 and the pKa [1] is listed as 10.70.
For `COc1ccccn1` [2-methoxypyridine], the “pH of 0.1 M aqueous sol'n” value [1] is given as 8.14.
In the case of `Cc1cncc(C)c1` [3,5-dimethylpyridine], the “pH of 0.1 M aqueous sol'n” value [1] is listed as 9.58.
For `COc1cccnc1` [3-methoxypyridine], the “pH of 0.1 M aqueous sol'n” value [1] is given as 8.89 and the pKa [1] is given as 4.78.
For `COc1ccncc1` [4-methoxypyridine], the “pH of 0.1 M aqueous sol'n” value [1] is listed as 9.79 and the pKa [1] is listed as 6.58.
For `CN1CCCC1` [N-methylpyrrolidine], the “pH of 0.1 M aqueous sol'n” value [1] is listed as 11.73 and the pKa [1] is listed as 10.46.
For `c1ccc2[nH]cnc2c1` [benzitnidazole], the “pH of 0.1 M aqueous sol'n” value [1] is given as 9.24 and the pKa [1] is given as 5.48.
For `NCc1ccccc1` [benzylamine], the “pH of 0.1 M aqueous sol'n” value [1] is given as 11.17.
For `NC1CCCCC1` [cyclohexylamine], the “pH of 0.1 M aqueous sol'n” value [1] is given as 11.82.
With `O=C(O)Cc1ccccc1Nc1c(Cl)cccc1Cl` [diclofenac, diclofenac sodium] the “cumulative amount of diclofenac that permeated through the skin” value ([2]; N-methyl glucamine added (Formulation H, with NaOH)) was 1.54 mg/cm^2, the “cumulative amount of diclofenac that permeated through the skin” value ([2]; monoethanolamine added (Formulation G, with NaOH)) was 1.57 mg/cm^2 and the “cumulative amount of diclofenac that permeated through the skin” value ([2]; no nitrogenous base added (Formulation E, NaOH only)) was 0.90 mg/cm^2. The “cumulative amount of diclofenac permeated, times higher than when no nitrogenous base was present” value ([2]; system containing monoethanolamine vs no nitrogenous base) was “about 1.7 times” and the “cumulative amount of diclofenac that permeated through the skin” value ([2]; triethanolamine added (Formulation F, with NaOH)) was 1.08 mg/cm^2.
For `NCCN` [ethylenediamine], the pKa [1] is listed as 9.93.
In the case of `CC(C)N` [isopropylamine], the “pH of 0.1 M aqueous sol'n” value [1] is given as 11.80 and the pKa [1] is given as 10.60.
For `CCCCN` [n-butylamine], the “pH of 0.1 M aqueous sol'n” value [1] is given as 11.81.
In the case of `NCCc1ccccc1` [phenethylamine], the “pH of 0.1 M aqueous sol'n” value [1] is given as 11.42.
For `C1CNCCN1` [piperazine], the “pH of 0.1 M aqueous sol'n” value [1] is given as 11.42.
For `NC(N)=O` [urea], the “pH of 0.1 M aqueous sol'n” value [1] is listed as 6.55.
For `CC(N)c1ccccc1` (stereo not drawn) [α-methyl-benzylamine], the “pH of 0.1 M aqueous sol'n” value [1] is listed as 11.38 and the pKa [1] is listed as 9.75.
In the case of `Cc1ccncc1` [γ-picoline], the pKa [1] is given as 5.99.
